# Assays:
# Bcl-2 [1] = biological target: T1, Bcl-2 (Homo sapiens, UniProt P10415); test: Protein degradation assay in human platelets (Western blot), Bcl-2; assay type: cell-based; design: endogenous in cells; host or cells: human platelets; details: FIG. 4, 16 h
# Procedure: (§1) Jurkat cells and human platelets were incubated with increasing concentrations of test compounds for 16 h. The cells were harvested and lysed in RIPA lysis buffer supplemented with protease and phosphatase inhibitor cocktails. An equal amount of protein ([…]) was resolved on a pre-cast 4-20% SDS-PAGE gel. Proteins were subsequently transferred to NOVEX PVDF membranes by electrophoresis. The membranes were blocked in blocking buffer (5% non-fat dry milk in TBS-T), and incubated with primary antibodies (at optimized concentrations) overnight at 4° C. After three washings in TBS-T, the membranes were incubated with an appropriate FIRP-conjugated secondary antibody for 1 h at room temperature. After extensive washing for three times, the proteins of interest was detected with ECL western blotting detection reagents and recorded with autoradiography (Pierce Biotech, Rockford, IL, USA). The primary antibodies for Bcl-xL (Cat #2762), Bcl-2 (Cat #2872), Mcl-1 (Cat #5453) and j-actin (Cat #4970) were purchased from Cell Signaling Technology. The relative band intensity was measured using ImageJ software and normalized to β-actin.
# Bcl-2 [2] = biological target: T1, Bcl-2; test: Protein degradation assay in Jurkat cells (Western blot), Bcl-2; assay type: cell-based; design: endogenous in cells; host or cells: Jurkat cells
# Procedure: as §1
# [3] = biological target: VCB E3 ligase complex and Bcl-xL (Homo sapiens, UniProt P40337+Q07817); test: Ternary complex assay (AlphaLISA); assay type: binding; details: FIG. 5A
# Chain of VCB E3 ligase complex and Bcl-xL (Q07817 whole entry): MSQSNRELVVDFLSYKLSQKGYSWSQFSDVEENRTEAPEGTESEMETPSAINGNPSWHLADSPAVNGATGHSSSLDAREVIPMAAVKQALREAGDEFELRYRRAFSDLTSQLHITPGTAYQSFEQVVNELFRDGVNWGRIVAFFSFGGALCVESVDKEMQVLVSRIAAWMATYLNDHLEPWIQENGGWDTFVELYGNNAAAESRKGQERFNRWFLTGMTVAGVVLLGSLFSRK
# Chain of VCB E3 ligase complex and Bcl-xL (P40337 whole entry): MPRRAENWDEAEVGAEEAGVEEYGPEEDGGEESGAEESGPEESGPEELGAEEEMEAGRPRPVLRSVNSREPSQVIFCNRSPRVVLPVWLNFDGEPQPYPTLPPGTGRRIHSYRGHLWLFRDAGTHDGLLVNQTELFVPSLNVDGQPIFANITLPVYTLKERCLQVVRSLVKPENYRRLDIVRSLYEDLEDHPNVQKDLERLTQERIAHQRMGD
# Chain of VCB E3 ligase complex and Bcl-xL (Q15370 whole entry partner): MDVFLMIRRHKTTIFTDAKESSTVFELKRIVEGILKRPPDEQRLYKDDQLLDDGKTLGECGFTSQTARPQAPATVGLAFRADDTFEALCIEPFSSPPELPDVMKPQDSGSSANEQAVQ
# Chain of VCB E3 ligase complex and Bcl-xL (Q15369 whole entry partner): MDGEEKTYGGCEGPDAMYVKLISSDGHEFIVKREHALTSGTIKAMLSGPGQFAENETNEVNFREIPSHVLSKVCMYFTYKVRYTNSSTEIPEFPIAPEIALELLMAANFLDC
# Procedure: To detect ternary complex formation induced by the compounds, AIphaLISA assay was used to measure luminescence signals arisen from proximity of Bcl-xL bounded acceptor beads and VHL- or CRBN—bounded donor beads. Briefly, to a 96-well PCR plate, 10 μL of 20 nM 6-His tagged Bcl-xL protein can be mixed with 10 μL of 20 nM GST-tagged VHL complex protein and 10 μL of serially diluted testing compounds. After incubating at room temperature for 30 […], 5 μL of 160 μg/mL Glutathione donor beads (PerkinEImer) was added and the mixture was incubated at dark for 15 min. 5 μL of 160 μg/mL of anti-His acceptor beads was added lastly and the mixture was incubated for an additional 45 min before being transferred to two adjacent wells (17 μL each) of 384-well white OptiPIate (PerkinEImer). The luminescence signals were detected on a Biotek's Synergy Neo2 multi-mode plate reader installed with an AphaScreen filter cube. All reagents were diluted in an assay buffer of 25 mM HEPES, pH 7.5, 100 mM NaCl, 0.1% BSA, and 0.005% tween 20 prior incubation.
# MOLT-4 = test: Cell viability assay (MTS) in MOLT-4 cells; assay type: cell-based; details: Homo sapiens, MOLT-4; Table 2; 48 hr; MTS; read-out: Anti-Cancer Activity IC50 (48 hr) MOLT-4
# Procedure: (§2) Acute lymphoblastic leukemia cells (MOLT-4 and RS4; 11) were incubated with increasing concentrations of Bcl-xL degraders for 48 h. Cell viability was measured by tetrazolium-based MTS assay.
# RS4; 11 = test: Cell viability assay (MTS) in RS4; 11 cells; assay type: cell-based; details: Homo sapiens, RS4-11; Table 2; 48 hr; MTS; read-out: Anti-Cancer Activity IC50 (48 hr) RS4; 11
# Procedure: as §2
# Bcl-xL [4] = biological target: T2, Bcl-xL (Homo sapiens, UniProt Q07817); test: Protein degradation assay in Jurkat cells (Western blot), Bcl-xL; assay type: cell-based; design: endogenous in cells; host or cells: Jurkat cells
# T2 sequence (Q07817 whole entry): as the sequence (Q07817 whole entry) above
# Procedure: as §1
# Bcl-xL [5] = biological target: T2, Bcl-xL; test: Protein degradation assay in human platelets (Western blot), Bcl-xL; assay type: cell-based; design: endogenous in cells; host or cells: human platelets; details: FIG. 4, 16 h
# Procedure: as §1
# [6] = FIGS. 2-3, increasing concentrations 16 hours, 100 nM for various durations
# [7] = FIGS. 2C, 3C, 16 h treatment, wash-off, cultured without compound 0 to 48
# T1 sequence (P10415 whole entry): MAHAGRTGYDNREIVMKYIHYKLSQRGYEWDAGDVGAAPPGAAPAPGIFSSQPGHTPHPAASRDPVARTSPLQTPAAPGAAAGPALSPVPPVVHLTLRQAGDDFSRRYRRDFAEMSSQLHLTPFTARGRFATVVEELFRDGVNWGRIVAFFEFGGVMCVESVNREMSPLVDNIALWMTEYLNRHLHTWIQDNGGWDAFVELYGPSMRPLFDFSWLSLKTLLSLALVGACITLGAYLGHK
smiles,measurement,setting,value
Cc1ncsc1-c1ccc([C@H](C)NC(=O)[C@@H]2C[C@@H](O)CN2C(=O)[C@@H](NC(=O)CN2CCN(CC(=O)N3CCN(C[C@]4(C)CCC(c5ccc(Cl)cc5)=C(CN5CCN(c6ccc(C(=O)NS(=O)(=O)c7ccc(N[C@H](CCN8CCCOCC8)CSc8ccccc8)c(S(=O)(=O)C(F)(F)F)c7)cc6)CC5)C4)CC3)CC2)C(C)(C)C)cc1 [Compound 77],Bcl-2 expression levels in human platelets,Bcl-2 [1],do not affect
same,degradation of Bcl-2 (immunoblot),Bcl-2 [2]; [6],dose- and time-dependently degraded
same,duration of Bcl-2 degradation after wash-off,Bcl-2 [2]; [7],long-lasting
same,ternary complex formation with the VCB E3 ligase complex and Bcl-xL,[3],formed ternary complexes
same,IC50,MOLT-4,< 20 nM
same,IC50,RS4; 11,< 20 nM
same,degradation of Bcl-xL (immunoblot),Bcl-xL [4]; [6],dose- and time-dependently degraded
same,duration of Bcl-xL degradation after wash-off,Bcl-xL [4]; [7],long-lasting
same,Bcl-xL expression levels in human platelets,Bcl-xL [5],do not affect
